This experiment has as its system NLRP3 inflammasome. Nature of the experiment: IL-1β Secretion Assay (NLRP3-dependent IL-1β secretion in PMA-differentiated THP-1 cells, nigericin activation, HTRF). The settings on record: Homo sapiens, THP-1, THP-1 cells, 100 ng/mL PMA 24 h, compound 20 h, 2.5 μM Nigericin 3 h; read-out: IC50 IL-1β Inhibition. It counts as cell-based. The method, boiled down: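 PMA-differentiated THP-1 cells in RPMI with 5% FBS were treated with compounds at 7 concentrations in threefold DMSO dilutions. NLRP3 was activated with nigericin and secreted IL-1β measured by HTRF. IC50 from a logistic fit of percent inhibition versus concentration.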
(In general: Time-resolved FRET reads energy transfer from a long-lived donor to a nearby acceptor.)
In the case of `CN1C[C@H](F)C[C@@H](Nc2nnc(-c3ccc(C(F)(F)F)cc3OC(F)F)c3c(F)ccn23)C1` [Compound I-439], the IC50 lay within 1 to 10 nM.

With `C[C@@H](O)CNc1nnc(-c2ccc(C(F)(F)F)cc2OC(F)F)c2c(F)ccn12` [Compound I-440], the IC50 was in the range of 10 to 100 nM.

Consider `CN1CCC[C@@H](Nc2nnc(-c3ccc(OC(F)(F)F)cc3O)c3c(F)ccn23)C1` [Compound I-441], for which the IC50 is 1 to 10 nM.

In the case of `CCN1CCC[C@@H](Nc2nnc(-c3ccc(Cl)cc3O)c3cncn23)C1` [Compound I-442], the IC50 was less than 1 nM.

`CN1CCC[C@@H](Nc2nnc(-c3ccc(Cl)cc3C(F)F)c3cccn23)C1` [Compound I-443, 1-[4-Chloro-2-(difluoromethyl)phenyl]-N-[(3R)-1-methyl-3-piperidyl]pyrrolo[1,2-d][1,2,4]triazin-4-amine]: the IC50 lay within 1 to 10 nM.

In the case of `Cc1cc(O)c(-c2nnc(N[C@@H]3C[C@@H](F)CN(C)C3)n3cccc23)c(F)c1` [Compound I-444], the IC50 is less than 1 nM.

For the molecule `CN1C[C@H](F)C[C@@H](Nc2nnc(-c3c(O)cc(C4CC4)cc3F)c3cccn23)C1` [Compound I-445, 5-Cyclopropyl-3-fluoro-2-[4-[[(3R,5R)-5-fluoro-1-methyl-3-piperidyl]amino]-pyrrolo[1,2-d][1,2,4]triazin-1-yl]phenol], the IC50 lay in the range of 1 to 10 nM.

In the case of `CN1CCC[C@@H](Nc2nnc(-c3ccc(C4CC4)cc3C(F)F)c3cccn23)C1` [Compound I-446, 1-[4-Cyclopropyl-2-(difluoromethyl)phenyl]-N-[(3R)-1-methyl-3-piperidyl]pyrrolo-[1,2-d][1,2,4]triazin-4-amine], the IC50 was in the range of 1 to 10 nM.

As for `Oc1cc(C(F)(F)F)cc(F)c1-c1nnc(N[C@@H]2CCCN(C3CCOC3)C2)n2cccc12` (stereo partly drawn) [Compound I-447], the IC50 lay within 1 to 10 nM.

As for `Oc1cc(C(F)(F)F)ccc1-c1nnc(N[C@@H]2CC[C@H](O)C2)n2cccc12` [Compound I-448], the IC50 is 10 to 100 nM.

For `Oc1cc(C(F)(F)F)ccc1-c1nnc(N[C@@H]2CC[C@@H](O)C2)n2cccc12` [Compound I-449], the IC50 lay in the range of 10 to 100 nM.

With `CC1(O)CCCC(Nc2nnc(-c3ccc(C(F)(F)F)cc3O)c3cccn23)C1` (stereo not drawn) [Compound I-450], the IC50 is 10 to 100 nM.

As to `COc1cc(Br)ccc1-c1nnc(N[C@@H]2CCCN(C)C2)n2nccc12` [Compound I-451], the IC50 is 10 to 100 nM.

With `CN1CCC[C@@H](Nc2nnc(-c3ccc(Br)cc3O)c3ccnn23)C1` [Compound I-452], the IC50 was in the range of 1 to 10 nM.

As to `CCN1CCC[C@@H](Nc2nnc(-c3ccc(Br)cc3O)c3ccnn23)C1` [Compound I-453], the IC50 is less than 1 nM.

In the case of `Cc1cc2c(-c3c(O)cc(Cl)cc3F)nnc(N[C@@H]3CCCN(C)C3)n2n1` [Compound I-455], the IC50 is less than 1 nM.

`COc1cc(O)c(-c2nnc(N[C@@H]3CCCN(C)C3)n3cccc23)c(F)c1` [Compound I-456]: the concentration for half-maximal inhibition (IC50) was less than 1 nM.

In the case of `COc1cc(O)c(-c2nnc(N[C@@H]3CCCN(CCO)C3)n3cccc23)c(F)c1` [Compound I-457], the IC50 lay in the range of 1 to 10 nM.

With `FC(F)Oc1cc(C(F)(F)F)ccc1-c1nnc(N[C@H]2CCOC2)n2cccc12` [Compound I-458], the IC50 was 100 to 300 nM.

`Oc1cc(C(F)(F)F)ccc1-c1nnc(N[C@H]2CCOC2)n2cccc12` [Compound I-459]: the concentration for half-maximal inhibition (IC50) fell in the range of 10 to 100 nM.

For the molecule `CN1CC=C[C@@H](Nc2nnc(-c3ccc(C(F)(F)F)cc3O)c3cncn23)C1` [Compound I-460], the half-maximal inhibitory concentration (IC50) lay within 1 to 10 nM.

In the case of `CN1CCC[C@@H](Nc2nnc(-c3ccc(C(F)(F)F)cc3O)c3cnnn23)C1` [Compound I-461, (R)-2-(7-((1-Methylpiperidin-3-yl)amino)-[1,2,3]triazolo[1,5-d][1,2,4]triazin-4-yl)-5-(trifluoromethyl)phenol], the 50% inhibitory concentration (IC50) lay in the range of 1 to 10 nM.

Turning to `Cc1cc(F)c(-c2nnc(N[C@@H]3C[C@@H](F)CN(C)C3)n3cccc23)c(OC(F)F)c1` [Compound I-462], the IC50 was 10 to 100 nM.

Consider `Cc1cc(F)c(-c2nnc(N[C@@H]3CCCN(CCO)C3)n3cccc23)c(OC(F)F)c1` [Compound I-463], for which the IC50 lay in the range of 10 to 100 nM.

With `Cc1cc(F)c(-c2nnc(N[C@@H]3CCCOC3)n3cccc23)c(OC(F)F)c1` [Compound I-464], the IC50 fell in the range of 100 to 300 nM.

Consider `Cc1cc(F)c(-c2nnc(N[C@H]3C[C@@](C)(O)C3)n3cccc23)c(OC(F)F)c1` [Compound I-465], for which the half-inhibitory concentration (IC50) lay within 100 to 300 nM.

`Cc1cc(O)c(-c2nnc(N[C@H]3C[C@@](C)(O)C3)n3cccc23)c(F)c1` [Compound I-466]: the IC50 lay in the range of 1 to 10 nM.

`C[C@]1(O)C[C@@H](Nc2nnc(-c3c(O)cc(C4CC4)cc3F)c3cccn23)C1` [Compound I-467]: the IC50 was in the range of 1 to 10 nM.

Turning to `CN1C[C@H](F)C[C@@H](Nc2nnc(-c3ccc(C(F)(F)F)cc3C(F)(F)F)c3cccn23)C1` [Compound I-468], the IC50 was 1 to 10 nM.

In the case of `FC(F)OCCN1CCC[C@@H](Nc2nnc(-c3ccc(C(F)(F)F)cc3C(F)(F)F)c3cccn23)C1` [Compound I-469], the IC50 fell in the range of 10 to 100 nM.

Regarding `CC(C)(O)CN1CCC[C@@H](Nc2nnc(-c3ccc(C(F)(F)F)cc3C(F)(F)F)c3cccn23)C1` [Compound I-470], the IC50 is 10 to 100 nM.

Regarding `COc1ccc(-c2nnc(N[C@@H]3CCCN(C)C3)n3cccc23)c(OC(F)F)c1` [Compound I-471], the IC50 lay within 1 to 10 nM.

With `COc1ccc(-c2nnc(N[C@H]3C[C@](C)(O)C3)n3cccc23)c(OC(F)F)c1` [Compound I-472], the IC50 lay in the range of 10 to 100 nM.

On to `C[C@H](O)CNc1nnc(-c2ccc(C(F)(F)F)cc2O)c2cccn12` [Compound I-473], for which the 50% inhibitory concentration (IC50) lay in the range of 10 to 100 nM.

As to `Oc1cc(C(F)(F)F)ccc1-c1nnc(N[C@@H]2CCOC2)n2cccc12` [Compound I-474], the IC50 lay within 10 to 100 nM.

In the case of `Cc1cc(F)c(-c2nnc(N[C@@H]3CCCN(C4CCOCC4)C3)n3cccc23)c(OC(F)F)c1` [Compound I-475], the IC50 fell in the range of 10 to 100 nM.

As to `Cc1cc(F)c(-c2nnc(N[C@@H]3CCCN(CC(C)(C)O)C3)n3cccc23)c(OC(F)F)c1` [Compound I-476], the IC50 is 100 to 300 nM.

On to `Cc1cc(C)c(-c2nnc(N[C@@H]3CCCN(C)C3)n3cccc23)c(O)c1` [Compound I-477], for which the IC50 lay within 1 to 10 nM.

With `CN1CC[C@H](F)[C@@H](Nc2nnc(-c3ccc(C(F)(F)F)cc3O)c3cccn23)C1` [Compound I-478], the half-inhibitory concentration (IC50) fell in the range of 10 to 100 nM.

Take `CCN1CCC[C@@H](Nc2nnc(-c3ccc(C(F)(F)F)cc3O)c3cccn23)C1` [Compound I-479]: the IC50 is less than 1 nM.

As to `CC(C)N1CCC[C@@H](Nc2nnc(-c3ccc(C(F)(F)F)cc3O)c3cccn23)C1` [Compound I-480], the IC50 was in the range of 1 to 10 nM.

For the molecule `CN1C[C@H](F)C[C@@H](Nc2nnc(-c3c(O)cc(Cl)cc3F)c3cccn23)C1` [Compound I-481], the IC50 was in the range of 1 to 10 nM.

Take `OCCN1CCC[C@@H](Nc2nnc(-c3c(O)cc(Cl)cc3F)c3cccn23)C1` [Compound I-482]: the IC50 was 1 to 10 nM.

`Oc1cc(C(F)(F)F)ccc1-c1nnc(N[C@@H]2CCCN(CC(F)(F)F)C2)n2cccc12` [Compound I-483]: the IC50 fell in the range of 100 to 300 nM.

Take `CN1CCC[C@@H](Nc2nnc(-c3ccc(Br)cc3O)c3cccn23)C1` [Compound I-484, (R)-5-Bromo-2-(4-((1-methylpiperidin-3-yl)amino)pyrrolo[1,2-d][1,2,4]triazin-1-yl)phenol]: the IC50 lay within 1 to 10 nM.

In the case of `CN1CCC[C@@H](Nc2nnc(-c3ccc(Cl)cc3OCC(F)(F)F)c3cccn23)C1` [Compound I-485, (R)-1-(4-Chloro-2-(2,2,2-trifluoroethoxy)phenyl)-N-(1-methylpiperidin-3-yl)pyrrolo[1,2-d][1,2,4]triazin-4-amine], the IC50 lay within 10 to 100 nM.

Take `CN1CC[C@@H](F)[C@@H](Nc2nnc(-c3ccc(C(F)(F)F)cc3O)c3cccn23)C1` [Compound I-486, 2-(4-(((3S,4R)-4-Fluoro-1-methylpiperidin-3-yl)amino)pyrrolo[1,2-d][1,2,4]triazin-1-yl)-5-(trifluoromethyl)phenol]: the half-maximal inhibitory concentration (IC50) lay in the range of 10 to 100 nM.

`CN1CCC[C@@H](Nc2nnc(-c3c(F)cc(C(F)(F)F)cc3OC(F)F)c3cccn23)C1` [Compound I-487]: the IC50 fell in the range of 1 to 10 nM.

`Cc1cc(F)c(-c2nnc(N[C@@H]3CCCN(C4CCOC4)C3)n3cccc23)c(OC(F)F)c1` (stereo partly drawn) [Compound I-488]: the IC50 fell in the range of 10 to 100 nM.

As to `Cc1cc(O)c(-c2nnc(N[C@@H]3CCCN(C4CCOC4)C3)n3cccc23)c(F)c1` (stereo partly drawn) [Compound I-489], the IC50 was 1 to 10 nM.

For the molecule `Oc1cc(Br)ccc1-c1nnc(N[C@@H]2CCCNC2)n2cccc12` [Compound I-490, (R)-5-Bromo-2-(4-(piperidin-3-ylamino)pyrrolo[1,2-d][1,2,4]triazin-1-yl) phenol], the IC50 was 1 to 10 nM.

Regarding `OCCN1CCC[C@@H](Nc2nnc(-c3ccc(C(F)(F)F)cc3C(F)(F)F)c3cccn23)C1` [Compound I-491], the IC50 lay within 1 to 10 nM.

For the molecule `C[C@@H](O)CNc1nnc(-c2ccc(C(F)(F)F)cc2C(F)(F)F)c2cccn12` [Compound I-492], the IC50 was in the range of 1 to 10 nM.

`CC(C)N1CCC[C@@H](Nc2nnc(-c3ccc(C(F)(F)F)cc3OC(F)F)c3cccn23)C1` [Compound I-493]: the IC50 was in the range of 1 to 10 nM.

Take `FC(F)Oc1cc(C(F)(F)F)ccc1-c1nnc(N[C@@H]2CCCN(CC(F)(F)F)C2)n2cccc12` [Compound I-494]: the IC50 lay in the range of 100 to 300 nM.

On to `CCN1CCC[C@@H](Nc2nnc(-c3c(O)cc(C4CC4)cc3F)c3cccn23)C1` [Compound I-495], for which the IC50 was less than 1 nM.

Regarding `C[C@@H](O)CNc1nnc(-c2c(O)cc(C3CC3)cc2F)c2cccn12` [Compound I-496], the IC50 lay in the range of 10 to 100 nM.

`CCN1CCC[C@@H](Nc2nnc(-c3c(O)cc(C)cc3F)c3cccn23)C1` [Compound I-498]: the IC50 was less than 1 nM.

For `Cc1cc(O)c(-c2nnc(NC[C@@H](C)O)n3cccc23)c(F)c1` [Compound I-499], the concentration for half-maximal inhibition (IC50) was in the range of 10 to 100 nM.

As to `C[C@H](O)CNc1nnc(-c2c(O)cc(C3CC3)cc2F)c2cccn12` [Compound I-500], the IC50 lay within 10 to 100 nM.

Usually IC50 stands for the midpoint of a concentration-inhibition curve.
